{
  "source": "patent US12433873B2",
  "about": "“Microtubule polymerization inhibitor prodrugs and methods of using the same” (University of Maryland, Baltimore, priority 2017, dated 2025)",
  "key": {"[1]": {"test_system": "OCY-293 cells", "test": "In vitro microtubule destabilization in OCY-293 cells stably expressing GFP-tubulin", "format": "cell-based", "conditions": "10-120 minutes, 0.3-100 μM", "method": "Cell treatment: OCY-293 cells stably expressing GFP-tubulin were cultured in 96-well plates at 37° C. in modified DMEM. […] Control cells were treated with vehicle. DAPI was added to each well to identify the nuclei. At each time point, cells were fixed with 4% paraformaldehyde and stored at 4° C. in the dark until imaging.\nImaging and Analysis: Cells were imaged to assess microtubule structure using fluorescence microscopy (Nikon TIe) with 5 images taken in different locations of each well. The images were digitized in two channels (GFP to visualize tubulin, and therefore microtubules; and DAPI to visualize nuclei). The microtubule area was traced, and nuclei were counted using predictive software (Nikon Elements v4.51) via unbiased automated measurements of each image in each of the wells. The microtubule area was normalized to the number of nuclei."}, "[2]": {"test_system": "mdx mice", "test": "In vivo nerve evoked torque and eccentric injury of the gastrocnemius muscle in mdx mice", "set-up": "species or system mouse", "conditions": "20 eccentric contractions of gastrocnemius, FIG. 2D", "method": "FIGS. 2A-2D illustrate that targeting microtubule density in vivo is solely sufficient to decrease contraction-induced injury in mdx mice. Nerve evoked torque and eccentric injury of the gastrocnemius muscle in vivo (FIG. 2A). […] Normalized torque records of the initial (time=0; wild-type in black, mdx in red) and 20th (grey) eccentric contractions (FIG. 2C).\nSkeletal Muscle Function. Evan's blue dye (EBD) (5 μg/μl solution in PBS; 5 μl/g body weight) can be injected I.P. 24 hrs before the assay. The in vivo assessment of the nerve evoked isometric force vs. stimulation frequency relationship of the gastrocnemius can be determined as described in the art. The maximal isometric force (post hoc normalized to estimated cross sectional area) can be taken as the measure of functional quality of the muscle. […]\nSusceptibility to contraction injury (skeletal muscle) can be assessed across each treatment cohort. As in FIG. 2, the % force deficit after 20 eccentric contractions of the gastrocnemius muscle can be determined. […] Thirty minutes after the last eccentric contraction, blood (orbital sinus) can be collected and analyzed for creatine kinase (CK) activity. […] After the trials, the muscle tissue can be processed and % EBD positive fibers can be used to quantitate the extent of muscle damage at rest (uninjured leg) or with injury."}, "[3]": {"test_system": "mdx muscle fibers", "test": "X-ROS, Ca2+ signaling and microtubule density in mdx muscle fibers in vitro", "format": "cell-based, mouse", "from_the_text": "FIGS. 1A-1E illustrate that microtubules underlie dysfunction in DMD. Aggregate DFF signals from WT (Black; n=5) and mdx (Red; n=6) muscle fibers (FIG. 1A). Mean values from A show a significant increase in X-ROS in the mdx (*p<0.05) that is blunted by colchicine (FIG. 1B). X-ROS leads to Ca^2+ influx that is blocked by microtubule depolymerization (FIG. 1C). Microtubule density is elevated in mdx fibers and reduced by colchicine (FIGS. 1D and 1E).\nIn murine DMD (mdx), it has been discovered that disease-driven alterations in microtubule network density and properties underscore the deleterious excess of Nox2-ROS and Ca^2+ signals in skeletal muscle and heart. Using colchicine, a drug that promotes microtubule depolymerization, it has been shown that reducing microtubule density normalized the dysregulated ROS and Ca^2+ signaling in DMD muscle fibers in vitro (see FIG. 1). […] The significance of these pre-clinical discoveries was bolstered by transcriptional evidence (RNASeq) for microtubule excess in muscle biopsy samples from affected DMD patients."}, "[4]": {"conditions": "cited from earlier work"}, "[5]": {"test_system": "mdx mice", "test": "Isoproterenol cardiac stress test in mdx mice", "format": "in vivo, mouse", "method": "FIGS. 5A-5D illustrate that colchicine blunts isoproterenol-induced cardiac damage in mdx and prevents cardiac arrhythmias. Wild-type and mdx mice were injected with Evan's blue dye one day prior then underwent an isoproterenol cardiac stress test and heart rate measured. […] Conversely, mdx mice cannot upregulate their heart rate to the same extent (˜2 fold) and only do so for a short period (30-45 min) before suffering severe arrhythmias and cardiac death, with only 10% survival.\nIsoproterenol Cardiac Stress and Sarcolemmal Damage of the Heart. Catecholaminergic work-load stress induces atrial fibrillation (AF), ventricular tachycardia (VT) and sudden cardiac death (SCD) in mdx mice and this can be prevented by colchicine treatment (FIG. 5). To assess if colchicine pro-drugs prevent AF, VT and SCD, Evan's blue dye (EBD) (5 μg/μl solution in PBS; 5 μl/g body weight) can be injected I.P. 24 hrs before the assay. Mice are first anesthetized with sodium pentobarbital, and the heart rate monitored by a single-lead electrocardiogram. Isoproterenol is then used to pharmacologically increase the level of mechanical stress imposed on the heart. The mice are killed 3 hours after the administration of isoproterenol and the heart mounted in cryomatrix, sectioned and assessed for sarcolemmal damage."}},
  "note": "Entries after “also recorded” stand apart in the source; their conditions may differ.",
  "data": [
    {"smiles": "COc1cc2c(c(OC)c1OC)-c1ccc(OC)c(=O)cc1[C@@H](N(C)C(=O)OC(C)OC(C)=O)CC2", "note": "(stereo partly shown) [compound 7]", "values": [
      {"measurement": "microtubule depolymerization (microtubule area normalized to number of nuclei)", "setting": "[1]", "result": "delayed and reduced depolymerization at all concentrations"}
    ]},
    {"smiles": "CCCCCCCCCCCCCCCC(=O)OCOC(=O)N(C)[C@H]1CCc2cc(OC)c(OC)c(OC)c2-c2ccc(OC)c(=O)cc21", "note": "[compound 10]", "values": [
      {"measurement": "microtubule depolymerization (microtubule area normalized to number of nuclei)", "setting": "[1]", "result": "dampened depolymerization at higher concentrations only"}
    ]},
    {"smiles": "COc1cc2c(c(OC)c1OC)-c1ccc(OC)c(=O)cc1[C@@H](NC(C)=O)CC2", "note": "[colchicine]", "values": [
      {"measurement": "force loss / contraction injury after eccentric contractions", "setting": "[2]", "result": "reduced contraction injury; also recorded: significant protection from force loss"},
      {"measurement": "microtubule depolymerization (microtubule area normalized to number of nuclei)", "setting": "[1]", "result": "rapid depolymerization at low concentrations"},
      {"measurement": "Microtubule density in mdx fibers", "setting": "[3]; FIGS. 1D and 1E", "result": "reduced"},
      {"measurement": "dysregulated ROS and Ca2+ signaling in DMD muscle fibers", "setting": "[3]; in vitro, FIG. 1", "result": "normalized"},
      {"measurement": "X-ROS (DFF signal) increase in mdx muscle fibers", "setting": "[3]; mdx muscle fibers, FIG. 1B", "result": "blunted"},
      {"measurement": "therapeutic window: lethal dose", "setting": "[4]; in vivo", "result": "16-30 × therapeutic dose"},
      {"measurement": "absorption, median", "setting": "[4]; oral", "result": 45, "unit": "%"},
      {"measurement": "half-life", "setting": "[4]; orally dosed", "result": "1 to 2.7", "unit": "h"},
      {"measurement": "time of peak plasma concentration", "setting": "[4]; orally dosed", "result": "30 to 90", "unit": "min"},
      {"measurement": "cardiac death and arrhythmia", "setting": "[5]; mdx mice after isoproterenol cardiac stress", "result": "prevents cardiac death and arrhythmia"},
      {"measurement": "survival", "setting": "[5]; mdx mice after isoproterenol cardiac stress (untreated mdx 10% survival)", "result": 90, "unit": "%"},
      {"measurement": "cardiac integrity (histological analysis, Evan's blue)", "setting": "[5]; mdx mice, FIGS. 5C and 5D", "result": "significant preservations of cardiac integrity"},
      {"measurement": "increase in cardiac workload", "setting": "[5]; mdx mice, compared to untreated animals", "result": "supports the increase in cardiac workload significantly"}
    ]},
    {"smiles": "COc1cc(C(C)=O)ccc1O", "note": "[apocynin]", "values": [
      {"measurement": "force loss / contraction injury after eccentric contractions", "setting": "[2]", "result": "significant protection from force loss"}
    ]}
  ]
}
